From PMC5004175, “Abcb1 in Pigs: Molecular cloning, tissues distribution, functional analysis, and its effect on pharmacokinetics of enrofloxacin” (Scientific Reports, 2016)
Where two headings read alike, the source gives them in different places.

Assays:
P-gp = P-gp inhibition (data not shown)
in vivo = settings: pig, plasma, po, 10 mg/kg
porcine P-gp [1] = assay: Bidirectional transport assay of enrofloxacin in MDCK-pAbcb1 cell monolayers; type: in vitro ADME, pig
Protocol: (§1) Transport assays were carried out as described[45] with minor modifications. MDCK and MDCK-pAbcb1 with a density of 6.6 × 10^4 cells/insert were seeded on a polyethylene terephthalate membrane insert (Millicell cell culture inserts, 1.0 μm pore size, 6.5 mm diameter) in 24-well culture plates. […] Samples were stored at −20 °C. All experiments were conducted in triplicate.
(§2) In brief, plasma was thawed at room temperature and centrifuged at 2,000 × g for 5 min. […] The organic phase was evaporated to dryness under a nitrogen stream and residue was resuspended with mobile phase solution. The samples from the transport assays were directly evaporated to dryness under a nitrogen stream and 40 μL of the mobile phase solution was used to concentrate the samples for 5 times. Twenty microliters of the mixture were injected into the HPLC column (Kromasil C18 columns, […] particle size, 250 × 4.6 mm). The mobile phase composition was 0.1 M phosphoric acid (adjusted pH to 3.5 with triethylamine)/acetonitrile (84:16, v/v) and the flow rate of mobile phase was set to 0.85 mL/min. UV absorbance was measured at 278 nm.
(§3) Apparent permeability coefficients (Papp) were calculated using the following equation: Papp = (dQ/dt)/(A × C0), where A is the area of filter membrane, C0 is the initial concentration of the test drug, dQ is the amount of transported drug, and dt is time elapsed. The efflux ratio (ER) was calculated from (Papp B → A)/(Papp A → B)[59]. Where Papp B → A and Papp A → B are BL to AP and AP to BL apparent permeability coefficients, respectively. The net efflux ratio was calculated using the following equation: Net efflux ratio = efflux ratio in MDCK-pAbcb1/efflux ratio in MDCK.

[2] = Pharmacokinetics of oral enrofloxacin in healthy pigs with/without verapamil; settings: enrofloxacin 10 mg/kg po alone, mean ± SEM, n = 4
[3] = Bidirectional transport assay of enrofloxacin in MDCK parental cell monolayers; type: in vitro ADME, canine; settings: dog, MDCK cells, enrofloxacin 12 μM alone
Protocol: as §1, §2, §3

[4] = Tolerability of P-gp inhibitor pre-treatment in piglets; type: in vivo; settings: piglets treated with the P-gp inhibitor; dose not given
porcine P-gp [5] = settings: 5 μM Rho123, during 2 h, p < 0.01

COc1ccc2cc3[n+](cc2c1OC)CCc1cc2c(cc1-3)OCO2 [Berberine]
Inhibition of P-gp (P-gp): can significantly inhibit P-gp

CCN1CCN(c2cc3c(cc2F)c(=O)c(C(=O)O)cn3C2CC2)CC1 [ENRO, enrofloxacin]
Cmax (in vivo): 3390 ± 120 ng/mL | Tmax (in vivo): 2.01 ± 0.09 h | k el (in vivo): 7.78e-05 s⁻¹ | Net efflux ratio (porcine P-gp [1]; enrofloxacin 12 μM alone, efflux ratio in MDCK-pAbcb1 / efflux ratio in MDCK): 2.48 | Papp B→A at 120 min, 12 μM (porcine P-gp [1]; pig, MDCK-MDR1, MDCK-pAbcb1 cells, enrofloxacin 12 μM alone, 120 min, mean ± SEM, n = 3): 19.9 ± 1.57 ×10⁻⁶ cm/s | efflux ratio at 120 min, 12 μM (porcine P-gp [1]; pig, MDCK-pAbcb1, MDCK-pAbcb1 cells, enrofloxacin 12 μM alone, Papp B→A / Papp A→B, read-out: Efflux ratio): 2.58 ± 0.25 | efflux ratio at 120 min, 12 μM (porcine P-gp [1]; pig, MDCK-pAbcb1, enrofloxacin 12 μM alone, efflux ratio in MDCK-pAbcb1 / efflux ratio in MDCK, read-out: Net efflux ratio): > 2 | Papp A→B at 120 min, 12 μM (porcine P-gp [1]; pig, MDCK-pAbcb1 cells, enrofloxacin 12 μM alone, 120 min, mean ± SEM, n = 3): 7.78 ± 1.28 ×10⁻⁶ cm/s | AUC (area under the plasma concentration-time curve) [2]: 13.57 ± 0.96 (μg/mL)·h | CL/F (Clearance/F) ([2]; plasma): 0.47 ± 0.01 (mg/kg/h)/(μg/mL) | Ka (absorption rate constant) ([2]; plasma): 0.82 ± 0.11 h⁻¹ | T1/2ka (absorption half-life) ([2]; plasma): 0.88 ± 0.20 h | T1/2ke (elimination half-life) ([2]; plasma): 2.50 ± 0.23 h | V/F (volume of distribution/F) ([2]; plasma): 1.69 ± 0.18 (mg/kg)/(μg/mL) | Papp A→B at 120 min, 12 μM ([3]; 120 min, mean ± SEM, n = 3): 12.3 ± 0.59 ×10⁻⁶ cm/s | Papp B→A at 120 min, 12 μM ([3]; 120 min, mean ± SEM, n = 3): 12.9 ± 1.65 ×10⁻⁶ cm/s | efflux ratio at 120 min, 12 μM ([3]; Papp B→A / Papp A→B): 1.04 ± 0.11

C/C=C/C[C@@H](C)C(=O)[C@H]1C(=O)N[C@@H](C(C)C)C(=O)N(C)CC(=O)N(C)[C@@H](CC(C)C)C(=O)N[C@@H](C(C)C)C(=O)N(C)[C@@H](CC(C)C)C(=O)N[C@@H](C)C(=O)N[C@H](C)C(=O)N(C)[C@@H](CC(C)C)C(=O)N(C)[C@@H](CC(C)C)C(=O)N(C)[C@@H](C(C)C)C(=O)N1C [PSC-833]
Adverse effect in treated piglets [4]: some animals began vomiting

COC(=O)c1ccccc1-c1c2ccc(=N)cc-2oc2cc(N)ccc12 [Rho123, rhodamine 123]
Accumulation of Rho123 in MDCK-pAbcb1 cells compared with MDCK cells (porcine P-gp [5]): accumulated less Rho123 than MDCK cells
